In patent publication US20260297109A1, “COMPOUNDS AS SUMO ACTIVATING ENZYME INHIBITORS” (WIGEN BIOMEDICINE TECHNOLOGY (SHANGHAI) CO., LTD., priority 2022, published 2026):

biological target: T1, SAE (Homo sapiens, UniProt Q9UBT2); assay: SUMO IF: in vitro inhibitory activity assay against SAE in HCT116 cells (SUMO-2/3 immunofluorescence); format: cell-based; settings: class symbols, 6 h at 37° C.
T1 construct: endogenous in cells; host or cells: HCT116
T1 sequence (Q9UBT2 1-640): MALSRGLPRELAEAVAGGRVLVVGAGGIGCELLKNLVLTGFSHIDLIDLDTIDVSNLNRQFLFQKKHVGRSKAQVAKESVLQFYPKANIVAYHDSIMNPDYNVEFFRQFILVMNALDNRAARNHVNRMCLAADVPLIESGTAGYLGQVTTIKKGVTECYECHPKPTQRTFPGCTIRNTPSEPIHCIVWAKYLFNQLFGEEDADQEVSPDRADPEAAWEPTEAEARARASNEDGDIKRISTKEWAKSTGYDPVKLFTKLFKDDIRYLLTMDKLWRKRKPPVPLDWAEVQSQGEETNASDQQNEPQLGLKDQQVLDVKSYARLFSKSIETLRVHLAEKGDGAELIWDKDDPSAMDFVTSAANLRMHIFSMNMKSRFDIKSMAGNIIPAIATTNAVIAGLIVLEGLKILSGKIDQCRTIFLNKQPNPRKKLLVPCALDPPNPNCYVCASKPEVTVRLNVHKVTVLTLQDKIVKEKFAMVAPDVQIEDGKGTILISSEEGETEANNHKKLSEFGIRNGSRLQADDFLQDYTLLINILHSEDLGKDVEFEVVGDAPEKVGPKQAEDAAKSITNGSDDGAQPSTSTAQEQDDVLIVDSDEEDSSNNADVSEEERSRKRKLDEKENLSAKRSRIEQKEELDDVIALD
T1 sequence (Q9UBE0 1-346): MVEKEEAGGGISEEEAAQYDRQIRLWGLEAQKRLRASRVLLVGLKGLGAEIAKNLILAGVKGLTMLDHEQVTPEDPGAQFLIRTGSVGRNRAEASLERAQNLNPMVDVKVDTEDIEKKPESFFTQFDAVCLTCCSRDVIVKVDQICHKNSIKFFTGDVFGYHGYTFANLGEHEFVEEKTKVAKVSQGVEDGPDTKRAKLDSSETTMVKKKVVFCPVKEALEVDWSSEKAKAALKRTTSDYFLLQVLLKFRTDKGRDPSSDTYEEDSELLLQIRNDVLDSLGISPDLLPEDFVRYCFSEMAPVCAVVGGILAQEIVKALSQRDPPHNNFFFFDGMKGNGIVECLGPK
How it was run: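 SUMO-2/3 immunofluorescence (18H8 primary 1:400, FITC secondary 1:300) was read after 6 h compound exposure of HCT116 cells at 37 °C. Inhibition rate and IC50 derive from signal relative to DMSO-treated wells.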

Row | Compound | IC50
1 | Cc1sc(C(=O)c2cncnc2N[C@H]2C[C@H](O)[C@@H](COS(N)(=O)=O)[C@@H]2F)cc1C1NCCc2cc(F)c(Cl)cc21 (stereo partly drawn) [Compound 246] | 50 to 200 nM
2 | NS(=O)(=O)OC[C@H]1[C@H](F)[C@@H](Nc2ncncc2C(=O)c2cc3c(s2)CC[C@]32NC3(CC3)Cc3ccc(Cl)cc32)C[C@@H]1O [Compound 705] | 50 to 200 nM
3 | NS(=O)(=O)OC[C@H]1[C@H](F)[C@@H](Nc2ncncc2C(=O)c2cc3c(s2)C(F)(F)C[C@]32NCCc3ccc(Cl)cc32)C[C@@H]1O [Compound 329] | 50 to 200 nM
4 | CC1Cc2ccc(Cl)cc2[C@@]2(CCCc3sc(C(=O)c4cncnc4N[C@H]4C[C@H](O)[C@@H](COS(N)(=O)=O)[C@@H]4F)cc32)N1 (stereo partly drawn) [Compound 1025] | 50 to 200 nM
5 | Cc1sc(C(=O)c2cncnc2N[C@H]2C[C@H](O)[C@@H](COS(N)(=O)=O)[C@@H]2F)cc1C1NCCc2ccc(C(F)(F)F)cc21 (stereo partly drawn) [Compound 244] | 50 to 200 nM
6 | COc1sc(C(=O)c2cncnc2N[C@H]2C[C@H](O)[C@@H](COS(N)(=O)=O)[C@@H]2F)cc1C1NCCc2ccc(Cl)cc21 (stereo partly drawn) [Compound 262] | 50 to 200 nM
7 | NS(=O)(=O)CC[C@H]1[C@H](F)[C@@H](Nc2ncncc2C(=O)c2cc3c(s2)CC[C@@]32NCCc3ccc(Cl)cc32)C[C@@H]1O [Compound 641] | > 200 nM
8 | CC(C)N1Cc2sc(C(=O)c3cncnc3N[C@H]3C[C@H](O)[C@@H](COS(N)(=O)=O)[C@@H]3F)cc2[C@@]2(C1)OCCc1ccc(F)cc12 [Compound 733] | > 200 nM
9 | NS(=O)(=O)OC[C@H]1[C@H](F)[C@@H](Nc2ncncc2C(=O)c2cc3c(s2)CCCC32NCCc3ccc(Cl)cc32)C[C@@H]1O (stereo partly drawn) [Compound 88] | ≤ 50 nM
10 | Cc1cc2c(cc1Cl)[C@@]1(CCc3sc(C(=O)c4cncnc4N[C@H]4C[C@H](O)[C@@H](COS(N)(=O)=O)[C@@H]4F)cc31)NCC2 [Compound 694] | ≤ 50 nM
11 | NS(=O)(=O)OC[C@H]1[C@H](F)[C@@H](Nc2ncncc2C(=O)c2cc3c(s2)CCC[C@@]32NC(=O)Cc3ccc(Cl)cc32)C[C@@H]1O [Compound 628] | > 200 nM
12 | NS(=O)(=O)OC[C@H]1[C@H](F)[C@@H](Nc2ncncc2C(=O)c2cc3c(s2)C(F)(F)CC32NCCc3ccc(Cl)cc32)C[C@@H]1O (stereo partly drawn) [Compound 327] | 50 to 200 nM
13 | Cc1sc(C(=O)c2cncnc2N[C@H]2C[C@H](O)[C@@H](COS(N)(=O)=O)[C@@H]2F)cc1[C@H]1NCCc2ccccc21 [Compound 231] | > 200 nM
14 | CN1CCc2ccc(Cl)cc2C12CCCc1sc(C(=O)c3cncnc3N[C@H]3C[C@H](O)[C@@H](COS(N)(=O)=O)[C@@H]3F)cc12 (stereo partly drawn) [Compound 594] | 50 to 200 nM
15 | NS(=O)(=O)OC[C@H]1[C@H](F)[C@@H](Nc2ncncc2C(=O)c2cc3c(s2)COC[C@@]32NCCc3ccc(Cl)c(F)c32)C[C@@H]1O [Compound 568] | > 200 nM
16 | NS(=O)(=O)OC[C@H]1[C@H](F)[C@@H](Nc2ncncc2C(=O)c2cc3c(s2)CC=CC32NCCc3ccc(Cl)cc32)C[C@@H]1O (stereo partly drawn) [Compound 121] | ≤ 50 nM
17 | NS(=O)(=O)OC[C@H]1[C@H](F)[C@@H](Nc2ncncc2C(=O)c2cc3c(s2)CNC[C@@]32NCCc3ccc(Cl)cc32)C[C@@H]1O [Compound 583] | > 200 nM
18 | CC1CN[C@@]2(CCCc3sc(C(=O)c4cncnc4N[C@H]4C[C@H](O)[C@@H](COS(N)(=O)=O)[C@@H]4F)cc32)c2cc(Cl)ccc21 (stereo partly drawn) [Compound 1021] | > 200 nM
19 | NS(=O)(=O)OC[C@H]1[C@H](F)[C@@H](Nc2ncncc2C(=O)c2cc3c(s2)CCC[C@]32NCCc3cnc(Cl)cc32)C[C@@H]1O [Compound 599] | ≤ 50 nM

Row | Compound | IC50
20 | NS(=O)(=O)OC[C@H]1[C@H](F)[C@@H](Nc2ncncc2C(=O)c2cc3c(s2)CCCC32NCCc3cc(Cl)ncc32)C[C@@H]1O (stereo partly drawn) [Compound 119] | 50 to 200 nM
21 | CN1CCc2ccc(Cl)cc2[C@@]12CCCc1sc(C(=O)c3cncnc3N[C@H]3C[C@H](O)[C@@H](COS(N)(=O)=O)[C@@H]3F)cc12 [Compound 596] | 50 to 200 nM
22 | NS(=O)(=O)OC[C@H]1[C@H](F)[C@@H](Nc2ncncc2C(=O)c2cc3c(s2)CC[C@]32NCC3(CC3)c3ccc(Cl)cc32)C[C@@H]1O [Compound 704] | 50 to 200 nM
23 | NS(=O)(=O)OC[C@H]1[C@H](F)[C@@H](Nc2ncncc2C(=O)c2cc3c(s2)CCC[C@@]32OCCc3ccc(Cl)cc32)C[C@@H]1O [Compound 685] | > 200 nM
24 | NS(=O)(=O)CC[C@H]1[C@H](F)[C@@H](Nc2ncncc2C(=O)c2cc3c(s2)CCCC32NCCc3ccc(Cl)cc32)C[C@@H]1O (stereo partly drawn) [Compound 636] | > 200 nM
25 | NS(=O)(=O)OC[C@H]1[C@H](F)[C@@H](Nc2ncncc2C(=O)c2cc3c(s2)CCC[C@]32NCCc3cc(Cl)c(F)cc32)C[C@@H]1O [Compound 677] | ≤ 50 nM
26 | NS(=O)(=O)OC[C@H]1[C@H](F)[C@@H](Nc2ncncc2C(=O)c2cc3c(s2)CN(C2CC2)CC32OCCc3ccc(F)cc32)C[C@@H]1O (stereo partly drawn) [Compound 738] | 50 to 200 nM
27 | Cc1sc(C(=O)c2cncnc2N[C@H]2C[C@H](O)[C@@H](COS(N)(=O)=O)[C@@H]2F)cc1C1NCCc2ccc(C#N)cc21 (stereo partly drawn) [Compound 238] | > 200 nM
28 | NS(=O)(=O)OC[C@H]1[C@H](F)[C@@H](Nc2ncncc2C(=O)c2nc3c(s2)CSC[C@@]32NCCc3ccc(Cl)cc32)C[C@@H]1O [Compound 592] | > 200 nM
29 | NS(=O)(=O)OC[C@H]1[C@H](F)[C@@H](Nc2ncncc2C(=O)c2cc3c(s2)COC[C@@]32NCCc3ccccc32)C[C@@H]1O [Compound 98] | > 200 nM
30 | NS(=O)(=O)OC[C@H]1[C@H](F)[C@@H](Nc2ncncc2C(=O)c2cc3c(s2)CNC[C@]32NCCc3ccc(Cl)cc32)C[C@@H]1O [Compound 584] | 50 to 200 nM
31 | NS(=O)(=O)OC[C@H]1[C@H](F)[C@@H](Nc2ncncc2C(=O)c2cc3c(s2)C(F)=C[C@]32NCCc3ccc(F)cc32)C[C@@H]1O [Compound 620] | 50 to 200 nM
32 | CC1=C[C@@]2(NCCc3ccc(Cl)cc32)c2cc(C(=O)c3cncnc3N[C@H]3C[C@H](O)[C@@H](COS(N)(=O)=O)[C@@H]3F)sc21 [Compound 325] | > 200 nM
33 | Cc1sc(C(=O)c2cncnc2N[C@H]2C[C@H](O)[C@@H](COS(N)(=O)=O)[C@@H]2F)cc1C1NCCc2cc(Cl)c(F)cc21 (stereo partly drawn) [Compound 252] | 50 to 200 nM
34 | Cc1ccc2c(c1)C1(CCCc3sc(C(=O)c4cncnc4N[C@H]4C[C@H](O)[C@@H](COS(N)(=O)=O)[C@@H]4F)cc31)NCC2 (stereo partly drawn) [Compound 106] | 50 to 200 nM
35 | N#Cc1ccc2c(c1)C1(CCc3sc(C(=O)c4cncnc4N[C@H]4C[C@H](O)[C@@H](COS(N)(=O)=O)[C@@H]4F)cc31)NCC2 (stereo partly drawn) [Compound 136] | 50 to 200 nM
36 | CN1Cc2sc(C(=O)c3cncnc3N[C@H]3C[C@H](O)[C@@H](COS(N)(=O)=O)[C@@H]3F)cc2[C@]2(C1)OCCc1ccccc12 [Compound 719] | 50 to 200 nM
37 | NS(=O)(=O)OC[C@H]1[C@H](F)[C@@H](Nc2ncncc2C(=O)c2cc3c(s2)CCC[C@]32NC3(CC3)Cc3ccc(Cl)cc32)C[C@@H]1O [Compound 684] | 50 to 200 nM

same assay, conditions: numeric values, 6 h at 37° C.

Row | Compound | IC50
38 | NS(=O)(=O)OC[C@H]1[C@H](F)[C@@H](Nc2ncncc2C(=O)c2cc3c(s2)COC[C@]32NCCc3ccc(Cl)cc32)C[C@@H]1O [Compound 105] | 79.3 nM
39 | NS(=O)(=O)OC[C@H]1[C@H](F)[C@@H](Nc2ncncc2C(=O)c2cc3c(s2)CC[C@]32NCCc3ccc(F)cc32)C[C@@H]1O [Compound 135] | 48.9 nM
